Laboratory results as given in article PMC11031590, “Narazaciclib, a novel multi-kinase inhibitor with potent activity against CSF1R, FLT3 and CDK6, shows strong anti-AML activity in defined preclinical models” (Scientific Reports, 2024).

Key:
CMK = assay: AML cell line in vitro proliferation assay; format: cell-based
Experimental: (§1) Narazaciclib was serially diluted with culture medium to 9 final assay concentrations from 0.01 to 100 μM. The assay was performed with both a negative control (vehicle) and a positive control (Cisplatin) in triplicate. The AML cell lines at log-growth phase were cultured in 96-well plates (black transparent flat bottom 96-well plate, Corning, Cat# 3603, FBS, ExCell Bio., Cat# FND500) in the presence of narazaciclib or Cisplatin at various concentrations for 72 h or 120 h (only for AML-193 cell line), followed by CTG readout according to the manufacturer’s instruction (CellTiter-Glo Luminescent Cell Viability Assay, Promega, Cat# G7573). Viability%=Lumdrug-Lummedium control/Lumcell control-Lummedium control×100%. Lumcell control-Lummedium controlas100%,LumMediumcontrolas0%. Proliferationfold increase=D5-LumNone treated-LumMedium control/D2LumNone treated-LumMedium control
(§2) Dose–response curves were fitted by a 4-parameter log-logistic model: Inhibition%=Bottom+Top-Bottom/1+10^logEC50-x∗HillSlope where Top and Bottom are the two asymptotes of the sigmoidal curve, EC50 is the relative IC50, concentration x is in log-10 scale and HillSlope is the slope at the EC50 point on the fitted curve. The fitted area under the curve (AUC) was calculated by: Inhibition%=Bottom+Top-Bottom/1+10^logEC50-x∗HillSlope where a represents the log10-transformed minimal concentration and b represents the log10-transformed maximal concentration. An extremely strong positive correlation between the absolute IC50 and AUC is shown in Supplemental Fig. S5.

HEL = assay: AML cell line in vitro proliferation assay; format: cell-based
Experimental: as §1, §2

KASUMI-6 = assay: AML cell line in vitro proliferation assay; format: cell-based
Experimental: as §1, §2

KG-1 = assay: AML cell line in vitro proliferation assay; format: cell-based
Experimental: as §1, §2

MONOMAC-1 = assay: AML cell line in vitro proliferation assay; format: cell-based
Experimental: as §1, §2

MONOMAC-6 = assay: AML cell line in vitro proliferation assay; format: cell-based
Experimental: as §1, §2

MV-4–11 = assay: AML cell line in vitro proliferation assay; format: cell-based
Experimental: as §1, §2

OCI-AML-5 = assay: AML cell line in vitro proliferation assay; format: cell-based
Experimental: as §1, §2

OCI-M2 = assay: AML cell line in vitro proliferation assay; format: cell-based
Experimental: as §1, §2

PLB-985 = assay: AML cell line in vitro proliferation assay; format: cell-based
Experimental: as §1, §2

TF-1 = assay: AML cell line in vitro proliferation assay; format: cell-based
Experimental: as §1, §2

[1] = test system: MV-4-11 subcutaneous xenograft; assay: MV-4-11 subcutaneous xenograft model; format: in vivo, NOD/scid mice; details: narazaciclib 100 mg/kg intraperitoneally twice per week for 3 weeks
Excerpt: The subcutaneous cell line xenograft (CDX) models and systemic patient-derived xenograft (PDX) models of AML have been extensively described before. For the subcutaneous MV-4-11 CDX model, 5 × 10^6 MV-4-11 tumor cells harvested from exponential growth phase were mixed with Matrigel (1:1) and then inoculated into the right front flank region of 6- to 7-week-old female NOD/scid mice for tumor development. MV-4-11 tumor-bearing mice were randomized into 5 groups (N = 8) when their tumor volume reached approximately 100 mm^3 and received their designated treatments following randomization. Narazaciclib was administrated intraperitoneally at 100 mg/kg twice per week for 3 weeks, while Azacitidine was administrated intraperitoneally at 3 mg/kg twice per week for 3 weeks. For the subcutaneous Ba/F3-ETV6-CSF1R CDX model, 1 × 10^6 Ba/F3-ETV6-CSF1R tumor cells harvested from exponential growth phase were mixed with Matrigel (1:1) and then inoculated into the right front flank region of 6- to 8-week-old female NOD/scid mice for tumor development. Ba/F3-ETV6-CSF1R tumor-bearing mice were randomized into 5 groups (N = 6) when their tumor volume reached approximately 100 mm^3 and received their designated treatments following randomization. […] Tumor volume and body weight were measured at different time points and tumor growth inhibition (TGI) was used as index to determine the therapeutic efficacy.

AM8096 AML-PDX = assay: AM8096 systemic AML-PDX model; format: in vivo, NOD/scid mice
Experimental: For systemic AML-PDX models, the model establishment and narazaciclib pharmacology experiment were performed essentially as described previously. Briefly, 2 × 10^6 AM7407 cells, or 2 × 10^6 AM7577 cells, or 2 × 10^6 AM5512 cells, or 1.65 × 10^6 AM8096 cells were inoculated intravenously into 4- to 5-week-old female NOD/scid mice for AML development. Engraftment was confirmed by the presence of circulating human CD45+ cells (anti-human CD45 antibody, Cat. 304038, Biolegend) in peripheral blood. Mice with successful engraftment of AML-PDX were randomized into different treatment groups (N = 6) and received their designated treatments. Narazaciclib was administrated orally or intraperitoneally at 10 mg/kg, or 30 mg/kg, or 100 mg/kg every day throughout the study, while Cytarabine was administrated intraperitoneally at 3 mg/kg every day. Following the initiation of designated treatments, leukemic burden was monitored by flow cytometry with anti-human CD45 antibody on the peripheral blood every week as well as on the peripheral blood, bone marrow cells and splenocytes of mice at sacrifice. Mice were sacrifice once the followings are observed: body weight loss over 20%, reduced motility and activity, labored breathing, ruffled coat, hunched back and severe dehydration.

[2] = area under the dose–response curve

With `CN1CCN(c2ccc(Nc3ncc4cc(C#N)c(=O)n(C5CCCC5)c4n3)cc2)CC1` [Narazaciclib, narazaciclib] the “Classification by AUC” value (CMK) was “Sensitive (AUC ≤ 2.4, sensitive)”, the IC50 (CMK; Homo sapiens, 72 h, CTG) was 1650 nM and the AUC (CMK; [2]) was 2.347. The “Classification by AUC” value (HEL) was “Insensitive (AUC ≥ 2.8, insensitive)”, the IC50 (HEL; Homo sapiens, 72 h, CTG) was 15.3 µM and the AUC (HEL; [2]) was 3.335. For the same compound, the “Classification by AUC” value (KASUMI-6; KASUMI-6) was “Sensitive (AUC ≤ 2.4, sensitive)”, the IC50 (KASUMI-6; KASUMI-6, 72 h, CTG) was 1480 nM and the AUC (KASUMI-6; KASUMI-6, area under the dose–response curve) was 2.251. For the same compound, the IC50 (KG-1; Homo sapiens, KG-1, 72 h, CTG) was 1760 nM, the “Classification by AUC” value (KG-1; KG-1) was “Intermediate (2.4 < AUC < 2.8, intermediate)” and the AUC (KG-1; KG-1, area under the dose–response curve) was 2.63. The “Classification by AUC” value (MONOMAC-1; MONOMAC-1) was “Sensitive (AUC ≤ 2.4, sensitive)”, the AUC (MONOMAC-1; MONOMAC-1, area under the dose–response curve) was 1.906 and the IC50 (MONOMAC-1; Mono-Mac-1, MONOMAC-1, 72 h, CTG) was 297 nM. For the same compound, the IC50 (MONOMAC-6; Homo sapiens, MONO-MAC-6, MONOMAC-6, 72 h, CTG) was 1520 nM, the “Classification by AUC” value (MONOMAC-6; MONOMAC-6) was “Sensitive (AUC ≤ 2.4, sensitive)” and the AUC (MONOMAC-6; MONOMAC-6, area under the dose–response curve) was 2.356. For the same compound, the IC50 (MV-4–11; Homo sapiens, MV4-11, MV-4–11, 72 h, CTG) was 264 nM, the “Classification by AUC” value (MV-4–11; MV-4–11) was “Sensitive (AUC ≤ 2.4, sensitive)” and the AUC (MV-4–11; MV-4–11, area under the dose–response curve) was 1.454. For the same compound, the IC50 (OCI-AML-5; Homo sapiens, OCI-AML-5, 72 h, CTG) was 370 nM, the “Classification by AUC” value (OCI-AML-5; OCI-AML-5) was “Sensitive (AUC ≤ 2.4, sensitive)” and the AUC (OCI-AML-5; OCI-AML-5, area under the dose–response curve) was 1.636. The “Classification by AUC” value (OCI-M2; OCI-M2) was “Insensitive (AUC ≥ 2.8, insensitive)”, the IC50 (OCI-M2; OCI-M2, 72 h, CTG) was over 100 µM and the AUC (OCI-M2; OCI-M2, area under the dose–response curve) was 3.46. For the same compound, the “Classification by AUC” value (PLB-985; PLB-985) was “Insensitive (AUC ≥ 2.8, insensitive)”, the IC50 (PLB-985; PLB-985, 72 h, CTG) was 14.1 µM and the AUC (PLB-985; PLB-985, area under the dose–response curve) was 2.988. The IC50 (TF-1; Homo sapiens, TF-1, 72 h, CTG) was 50.8 µM, the “Classification by AUC” value (TF-1; TF-1) was “Insensitive (AUC ≥ 2.8, insensitive)” and the AUC (TF-1; TF-1, area under the dose–response curve) was 3.502. For the same compound, the “anti-AML activity (tumor growth)” value [1] was “significant anti-AML activity”, the “leukemic load in peripheral blood, spleen and bone marrow” value (AM8096 AML-PDX; AM8096) was “reduce the leukemic load in peripheral blood and spleen, but also the leukemic load in bone marrow” and the “leukemic burdens, dose dependence” value (AM8096 AML-PDX; AM8096, different dose levels) was “reduced the leukemic burdens in a dose-dependent manner”. The response of model (AM8096 AML-PDX; AM8096, narazaciclib 100 mg/kg intraperitoneally every day) was “responded completely”.
